Ends that are not written are not given here.

In assay [1] the test system is db/db mice. In words: Fed blood glucose in db/db mice (age of 6 weeks). Particulars: fed conditions, up to 4 weeks, AVE0010 0.05, FGF-21 0.75 mg/kg/day s.c. or combined. Type of assay: in vivo. Here is the method:
(§1) Female db/db mice (BKS.Cg-m+/+Leprdb/J, age of 6 weeks) were treated with vehicle (PBS), 0.05 mg·kg^−1·day^−1 AVE0010, 0.75 mg·kg^−1·day^−1 recombinant human FGF-21 (SEQ ID NO: 2) or a combined dose of FGF-21 (SEQ ID NO: 2) and AVE0010 (0.75+0.05 mg·kg^−1·day^−1) subcutaneously once daily. Mice were fed ad libitum. Before the first treatment, after one week and 4 weeks blood glucose and HbA1c were measured under fed conditions. After 21 days of treatment an oral glucose tolerance test (OGTT) was initiated. Fasted mice were orally challenged with 2 g·kg^−1 glucose solution and blood glucose was measured at indicated time points.

Assay [2] deals with db/db mice. Nature of the assay: Oral glucose tolerance test (OGTT) in db/db mice after 21 days. Type of assay: in vivo. Conditions: after 21 days of treatment, 2 g/kg oral glucose, vs vehicle treated obese control. Here is the method:
as §1

A further assay concerns Type 2 diabetic patients. Conditions: doses elevating plasma concentrations to approximately 3-4 fold physiological postprandial levels (Nauck 1997); cited from earlier work.

On to “AVE0010: GLP-1R agonist, SEQ ID NO: 9; sequence identical to lixisenatide SEQ ID NO: 8 [reference compound]”, for which the blood glucose result with db/db mice [1] was “inhibition of blood glucose increase”. Further, the “glucose tolerance (OGTT)” value with db/db mice [2] is listed as “small improvement”.

Take “GLP-1(7-27): bioactive GLP-1; probably GLP-1(7-37), SEQ ID NO: 3 (HAEGTFTSDVSSYLEGQAAKEFIAWLVKGRG; Fragment of human GLP-1 (7 to 37))”: the fasting hyperglycaemia entry with Type 2 diabetic patients was “fully normalizes”.

Regarding “GLP-1(7-36 amide): bioactive GLP-1, SEQ ID NO: 4 (HAEGTFTSDVSSYLEGQAAKEFIAWLVKGR-NH2)”, the fasting hyperglycaemia entry with Type 2 diabetic patients is recorded as “fully normalizes”.

(Values after patent US20140142023A1, “Pharmaceutical Composition for Treating A Metabolic Syndrome” (SANOFI, priority 2011, published 2014).)
